Laboratory results reported in patent publication US12303505B2, “Tumor-treating pharmaceutical composition” (Eisai R&D Management Co., Ltd., priority 2017, dated 2025).
Counter-ions that a name gives are not always drawn.

What was measured:
Assay type in all cases: in vivo
[1] = test system: transgenic mouse (MMTV-Wnt-1) spontaneous breast cancer; experiment: Antitumor effect in serial transplantation model of transgenic mouse (MMTV-Wnt-1) spontaneous breast cancer, C57BL/6J mice
Description: Spontaneous breast cancer of a transgenic mouse (MMTV-Wnt-1, The Jackson Laboratory) caused to locally express Wnt-1 in mammary gland epithelial cells was collected, transplanted in a mouse of background strain (C57BL/6J, Charles River Laboratories Japan, Inc.) by using a trocar, and passaged. The tumor thus transplanted and passaged was excised when becoming approximately 1.5 g, and prepared into approximately 30 mg of a fragment, which was subcutaneously transplanted to the sides of the bodies of five mice (C57BL/6J) each of a control group, an E7386 12.5, 25 or 50 mg/kg alone administration group, a lenvatinib mesylate 10 mg/kg alone administration group, and a combined administration group of 12.5, 25 or 50 mg/kg E7386 and 10 mg/kg lenvatinib mesylate. After confirmation of engraftment of the tumor, E7386 (12.5, 25 or 50 mg/kg, b.d.s., 14 days, oral administration) and lenvatinib mesylate (10 mg/kg, q.d., 14 days, oral administration) were administered alone or in combination to the alone administration group or the combined administration group. For the administration, E7386 was dissolved in 0.1 mol/L hydrochloric acid, and lenvatinib mesylate was dissolved in 3 mmol/L hydrochloric acid. 0.1 mol/L hydrochloric acid (b.d.s., 14 days) was administered to the control group.
When the start day of administration was defined as day 1, the major axis and minor axis of tumor developed in each mouse were then measured at day 4, day 8, day 11, and day 15 by using Digimatic Caliper (Mitutoyo Corp.).
The tumor volume and the relative tumor volume (RTV) were calculated according to the following expressions. Tumor volume (mm^3)=Tumor major axis (mm)×Tumor minor axis^2 (mm)/2 Relative tumor volume (RTV)=Tumor volume at the measurement day/Tumor volume at the start day of administration

[2] = test system: Human breast cancer MDA-MB-231 cells; experiment: Antitumor effect in human breast cancer MDA-MB-231 transplantation model, nude mice
Description: Human breast cancer MDA-MB-231 cells (ATCC) were cultured by using RPMI1640 medium (Sigma-Aldrich Co. LLC) containing 10% FBS in a 5% CO2 incubator under conditions of 37° C. When the cells became an approximately 80% confluent state, the cells were recovered by using trypsin-EDTA. A suspension was prepared by adding Hank's balanced salt solution containing 50% Matrigel to the cells so as to be 10.0×10^7 cells/mL. 0.1 mL of the obtained cell suspension was subcutaneously transplanted to the sides of the bodies of five nude mice (CAnN.Cg-Foxn1^nu/CrlCrlj, Charles River Laboratories Japan, Inc.) each of a control group, an E7386 25 mg/kg alone administration group, a lenvatinib mesylate 10 mg/kg alone administration group, and a combined administration group of 25 mg/kg E7386 and 10 mg/kg lenvatinib mesylate. From 6 days after the transplantation, E7386 (25 mg/kg, b.d.s., 10 days, oral administration) and lenvatinib mesylate (10 mg/kg, q.d., 10 days, oral administration) were administered alone or in combination to the alone administration group or the combined administration group. For the administration, E7386 was dissolved in 0.1 mol/L hydrochloric acid, and lenvatinib mesylate was dissolved in 3 mmol/L hydrochloric acid. Any drug was not administered to the control group.
When the start day of administration was defined as day 1, the major axis and minor axis of tumor developed in each mouse were then measured at day 4, day 7, and day 10 by using Digimatic Caliper (Mitutoyo Corp.).
(§1) The tumor volume and the relative tumor volume (RTV) were calculated according to the following expressions. Tumor volume (mm^3)=Tumor major axis (mm)×Tumor minor axis^2 (mm^2)/2 Relative tumor volume (RTV)=Tumor volume at the measurement day/Tumor volume at the start day of administration

[3] = test system: Human hepatocellular carcinoma line SNU398 cells; experiment: Antitumor effect in human hepatocellular carcinoma line SNU398 transplantation model, nude mice
Description: Human hepatocellular carcinoma line SNU398 cells (ATCC) were cultured by using RPMI1640 medium (Wako Pure Chemical Industries, Ltd.) containing 10% FBS in a 5% CO2 incubator under conditions of 37° C. When the cells became an approximately 80% confluent state, the cells were recovered by using trypsin-EDTA. A suspension was prepared by adding Hank's balanced salt solution containing 50% Matrigel to the cells so as to be 5.0×10^7 cells/mL. 0.1 mL of the obtained cell suspension was subcutaneously transplanted to the sides of the bodies of eight nude mice (CAnN.Cg-Foxn1^nu/CrlCrlj, Charles River Laboratories Japan, Inc.) each of a control group, an E7386 50 mg/kg alone administration group, a lenvatinib mesylate 10 mg/kg alone administration group, and a combined administration group of 12.5, 25 or 50 mg/kg E7386 and 10 mg/kg lenvatinib mesylate. From 9 days after the transplantation, E7386 (12.5, 25, or 50 mg/kg, b.d.s., 14 days, oral administration) and lenvatinib mesylate (10 mg/kg, q.d., 14 days, oral administration) were administered alone or in combination to the alone administration group or the combined administration group. For the administration, E7386 was dissolved in 0.1 mol/L hydrochloric acid, and lenvatinib mesylate was dissolved in 3 mmol/L hydrochloric acid. Any drug was not administered to the control group.
When the start day of administration was defined as day 1, the major axis and minor axis of tumor developed in each mouse were then measured at day 6, day 9, day 12, and day 15 by using Digimatic Caliper (Mitutoyo Corp.).
as §1

[4] = Day 4, E7386 25 mg/kg b.d.s. oral alone
[5] = Day 15, E7386 50 mg/kg b.d.s. oral alone
[6] = Day 4, lenvatinib mesylate 10 mg/kg q.d. oral alone
[7] = Day 15, lenvatinib mesylate 10 mg/kg q.d. oral alone

C=CCN1CC(=O)N2[C@@H](Cc3ccc(O)cc3F)C(=O)N(Cc3cccc(N4CC(N5CCN(CC)CC5)C4)n3)C[C@@H]2N1C(=O)NCc1ccccc1 [E7386, (6S,9aS)—N-Benzyl-8-({6-[3-(4-ethylpiperazin-1-yl)azetidin-1-yl]pyridin-2-yl}methyl)-6-(2-fluoro-4-hydroxybenzyl)-4,7-dioxo-2-(prop-2-en-1-yl)hexahydro-2H-pyrazino[2,1-c][1,2,4]triazine-1(6H)-carboxamide]
Relative tumor volume (RTV), mean±SD ([1]; Day 4, E7386 12.5 mg/kg b.d.s. oral alone): 1.34 ± 0.25 | Relative tumor volume (RTV), mean±SD [1, 4]: 1.26 ± 0.28 | Relative tumor volume (RTV), mean±SD ([1]; Day 4, E7386 50 mg/kg b.d.s. oral alone): 0.93 ± 0.23 | Relative tumor volume (RTV), mean±SD ([1]; Day 8, E7386 12.5 mg/kg b.d.s. oral alone): 1.20 ± 0.40 | Relative tumor volume (RTV), mean±SD ([1]; Day 8, E7386 25 mg/kg b.d.s. oral alone): 1.56 ± 0.48 | Relative tumor volume (RTV), mean±SD ([1]; Day 8, E7386 50 mg/kg b.d.s. oral alone): 1.05 ± 0.26 | Relative tumor volume (RTV), mean±SD ([1]; Day 11, E7386 12.5 mg/kg b.d.s. oral alone): 1.70 ± 0.67 | Relative tumor volume (RTV), mean±SD ([1]; Day 11, E7386 25 mg/kg b.d.s. oral alone): 2.40 ± 0.22 | Relative tumor volume (RTV), mean±SD ([1]; Day 11, E7386 50 mg/kg b.d.s. oral alone): 1.34 ± 0.35 | Relative tumor volume (RTV), mean±SD ([1]; Day 15, E7386 12.5 mg/kg b.d.s. oral alone): 2.12 ± 0.65 | Relative tumor volume (RTV), mean±SD ([1]; Day 15, E7386 25 mg/kg b.d.s. oral alone): 3.69 ± 0.92 | Relative tumor volume (RTV), mean±SD [1, 5]: 1.59 ± 1.03 | Relative tumor volume (RTV), mean±SD [2, 4]: 2.34 ± 0.11 | Relative tumor volume (RTV), mean±SD ([2]; Day 7, E7386 25 mg/kg b.d.s. oral alone): 3.19 ± 0.38 | Relative tumor volume (RTV), mean±SD ([2]; Day 10, E7386 25 mg/kg b.d.s. oral alone): 4.49 ± 0.51 | Relative tumor volume (RTV), mean±SD ([3]; Day 6, E7386 50 mg/kg b.d.s. oral alone): 3.74 ± 0.75 | Relative tumor volume (RTV), mean±SD ([3]; Day 9, E7386 50 mg/kg b.d.s. oral alone): 6.31 ± 1.74 | Relative tumor volume (RTV), mean±SD ([3]; Day 12, E7386 50 mg/kg b.d.s. oral alone): 7.33 ± 0.89 | Relative tumor volume (RTV), mean±SD [3, 5]: 10.1 ± 1.03

COc1cc2nccc(Oc3ccc(NC(=O)NC4CC4)c(Cl)c3)c2cc1C(N)=O [Lenvatinib mesylate, 4-(3-chloro-4-(cyclopropylaminocarbonyl)aminophenoxy)-7-methoxy-6-quinolinecarboxamide, reference compound]
Relative tumor volume (RTV), mean±SD [1, 6]: 1.03 ± 0.13 | Relative tumor volume (RTV), mean±SD ([1]; Day 8, lenvatinib mesylate 10 mg/kg q.d. oral alone): 0.87 ± 0.13 | Relative tumor volume (RTV), mean±SD ([1]; Day 11, lenvatinib mesylate 10 mg/kg q.d. oral alone): 0.98 ± 0.21 | Relative tumor volume (RTV), mean±SD [1, 7]: 1.05 ± 0.25 | Relative tumor volume (RTV), mean±SD [2, 6]: 2.01 ± 0.60 | Relative tumor volume (RTV), mean±SD ([2]; Day 7, lenvatinib mesylate 10 mg/kg q.d. oral alone): 2.41 ± 0.60 | Relative tumor volume (RTV), mean±SD ([2]; Day 10, lenvatinib mesylate 10 mg/kg q.d. oral alone): 2.67 ± 1.23 | Relative tumor volume (RTV), mean±SD ([3]; Day 6, lenvatinib mesylate 10 mg/kg q.d. oral alone): 3.98 ± 1.00 | Relative tumor volume (RTV), mean±SD ([3]; Day 9, lenvatinib mesylate 10 mg/kg q.d. oral alone): 6.48 ± 1.74 | Relative tumor volume (RTV), mean±SD ([3]; Day 12, lenvatinib mesylate 10 mg/kg q.d. oral alone): 8.33 ± 2.08 | Relative tumor volume (RTV), mean±SD [3, 7]: 9.71 ± 2.30
